# Measurements reported in patent US20220169632A1, “METHODS AND MATERIALS FOR INCREASING OR MAINTAINING NICOTINAMIDE MONONUCLEOTIDE ADENYLYL TRANSFERASE-2 (NMNAT2) POLYPEPTIDE LEVELS” (University of Pittsburgh - Of the Commonwealth System of …, priority 2019, published 2022).
# Tested on: NMNAT2
# Assay: NMNAT2-Hibit nano-luciferase activity in stably transfected U87MG cells, various concentrations, 24 hours
# Type: cell-based
# Conditions: U87MG cells stably transfected with NMNAT2-Hibit luc plasmid
# Method: Selected compounds were tested in vitro. U87MG cells were stably transfected with NMNAT2-Hibit luc plasmid. Cells were treated with a test compound at various concentrations for 24 hours. Cells were then collected and assayed for nano-luciferase activity.
row,Compound,E: compound efficacy for NMNAT2 activation (concentration giving >25% increase in NMNAT2 luciferase activity)
1,Cc1ccccc1CNC(=O)C1CCc2c(c3ccccc3n2Cc2ccncc2)C1 (stereo not drawn) [BC20280],+ (“+” >25% increase in NMNAT2 luciferase activity at >25 μM.)
2,Cc1c(C)n(Cc2ccccc2F)c2ccc(C(=O)NCc3cccc(F)c3)cc12 [BC20104],++ (“++” >25% increase in NMNAT2 luciferase activity at >1 μM ≤25 μM.)
3,COc1ccccc1CNC(=O)[C@H]1C[C@@H]1c1c(C)n(Cc2cc(C)ccc2C)c2ccccc12 (racemic) [BC20324],+ (“+” >25% increase in NMNAT2 luciferase activity at >25 μM.)
4,COc1ccccc1CNC(=O)Cn1cc(C(=O)c2ccc(Cl)cc2)c2ccccc21 [BC20180],++ (“++” >25% increase in NMNAT2 luciferase activity at >1 μM ≤25 μM.)
5,Cc1c(C)n(Cc2cccc(F)c2)c2ccc(C(=O)N3CCc4occc4C3)cc12 [BC20250],++ (“++” >25% increase in NMNAT2 luciferase activity at >1 μM ≤25 μM.)
6,Cc1ccccc1CNC(=O)CCCc1cn(Cc2cccc(F)c2)c2ccccc12 [BC20140],+ (“+” >25% increase in NMNAT2 luciferase activity at >25 μM.)
7,Cc1ccc(C)c(Cn2c3c(c4ccccc42)CC(C(=O)NCc2ccco2)CC3)c1 (stereo not drawn) [BC20102],++ (“++” >25% increase in NMNAT2 luciferase activity at >1 μM ≤25 μM.)
8,Cc1ccc(Cn2c3c(c4ccccc42)C(C(=O)NCc2cccc(C)c2)CCC3)cc1 (stereo not drawn) [BC20386],++ (“++” >25% increase in NMNAT2 luciferase activity at >1 μM ≤25 μM.)
9,COc1ccccc1CNC(=O)c1ccc2c(c1)c(C)c(C)n2Cc1cccc(F)c1 [BC20115],++ (“++” >25% increase in NMNAT2 luciferase activity at >1 μM ≤25 μM.)
10,Cc1ccc(C)c(Cn2c3c(c4ccccc42)CC(C(=O)NCc2ccncc2)CC3)c1 (stereo not drawn) [BC20190],+ (“+” >25% increase in NMNAT2 luciferase activity at >25 μM.)

# Tested on: NMNAT2
# Assay: NMNAT2-Hibit nano-luciferase activity in transfected U87MG cells, 25 μM, 24 hours
# Type: cell-based
# Conditions: NMNAT2-Hibit luc plasmid, 24 hours (Table B)
# Method: Selected compounds were tested in vitro. Briefly, U87MG cells were transfected with NMNAT2-Hibit luc plasmid. Cells were treated with a test compound at 25 μM for 24 hours. Cells were then collected and assayed for nano-luciferase activity.
row,Compound,B: compound efficacy (IC50) for NMNAT2 activation; increase in NMNAT2 luciferase activity
1,O=C(NCc1ccccc1)NCc1noc2ccccc12 [Compound 181036],+ (“+” <20% increase in NMNAT2 luciferase activity.)
2,Cc1ccc2onc(CNC(=O)Nc3ccc(F)cc3F)c2c1 [Compound 181042],+ (“+” <20% increase in NMNAT2 luciferase activity.)
3,Cc1ccc(NC(=O)NCc2noc3ccc(C)cc23)c(Br)c1 [Compound 181038],+ (“+” <20% increase in NMNAT2 luciferase activity.)
4,CC(=O)c1cccc(NC(=O)NCc2noc3ccccc23)c1 [Compound 181031],+ (“+” <20% increase in NMNAT2 luciferase activity.)
5,Cc1ccc2onc(CNC(=O)Nc3ccccc3C)c2c1 [Compound 181074],+ (“+” <20% increase in NMNAT2 luciferase activity.)
6,Cc1cccc(N(C)C(=O)NCc2noc3ccccc23)c1 [Compound 181018],+ (“+” <20% increase in NMNAT2 luciferase activity.)
7,Cc1ccc2onc(CNC(=O)Nc3ccccc3Cl)c2c1 [Compound 181079],+ (“+” <20% increase in NMNAT2 luciferase activity.)
8,CCN(C(=O)NCc1noc2ccc(C)cc12)c1cccc(Cl)c1 [Compound 181054],+ (“+” <20% increase in NMNAT2 luciferase activity.)
9,Cc1ccc2onc(CNC(=O)N(C)c3cccc(Cl)c3)c2c1 [Compound 181055],+ (“+” <20% increase in NMNAT2 luciferase activity.)
10,Cc1ccc2onc(CNC(=O)NC3CCCCCC3)c2c1 [Compound 181049],+ (“+” <20% increase in NMNAT2 luciferase activity.)
11,O=C(NCc1noc2ccccc12)Nc1cccc(Cl)c1 [Compound 181001],+ (“+” <20% increase in NMNAT2 luciferase activity.)
12,CCc1ccccc1NC(=O)NCc1noc2ccccc12 [Compound 181024],+ (“+” <20% increase in NMNAT2 luciferase activity.)
13,Cc1ccc2onc(CNC(=O)N3CCN(c4cccc(Cl)c4)CC3)c2c1 [Compound 181045],+ (“+” <20% increase in NMNAT2 luciferase activity.)
14,O=C(NCc1cccc(Cl)c1)NCc1noc2ccccc12 [Compound 181025],+ (“+” <20% increase in NMNAT2 luciferase activity.)
15,CN(C(=O)NCc1noc2ccccc12)c1ccc(F)cc1 [Compound 181032],+ (“+” <20% increase in NMNAT2 luciferase activity.)
16,Cc1ccc2onc(CNC(=O)NCCN(C)Cc3ccccc3)c2c1 [Compound 181073],+ (“+” <20% increase in NMNAT2 luciferase activity.)
17,Cc1ccc(N(C)C(=O)NCc2noc3ccccc23)cc1C [Compound 181014],+ (“+” <20% increase in NMNAT2 luciferase activity.)
18,O=C(NCc1noc2ccccc12)Nc1ccc(Cl)cc1 [Compound 181028],+ (“+” <20% increase in NMNAT2 luciferase activity.)
19,COc1ccccc1CNC(=O)NCc1noc2ccc(C)cc12 [Compound 181044],+ (“+” <20% increase in NMNAT2 luciferase activity.)
20,CC(C)c1ccc(NC(=O)NCc2noc3ccccc23)cc1 [Compound 181010],+ (“+” <20% increase in NMNAT2 luciferase activity.)

# Same assay, conditions: NMNAT2-Hibit luc plasmid, 24 hours (Table C)
row,Compound,C: Compound efficacy for NMNAT2 activation; increase in NMNAT2 luciferase activity
1,O=C(CCc1cn(Cc2ccccc2F)c2ccccc12)NCc1ccco1 [Compound 181117],+ (“+” <20% increase in NMNAT2 luciferase activity.)
2,Cc1cc(C)n(CC(=O)Nc2ccccc2C(=O)NCc2ccco2)c(=O)c1C#N [Compound 181135],+ (“+” <20% increase in NMNAT2 luciferase activity.)
3,O=C(NCCn1ccc2c(Cl)cccc21)c1ccco1 [Compound 181155],+ (“+” <20% increase in NMNAT2 luciferase activity.)
4,Cc1ccc(C(CC(=O)NCc2ccco2)c2cn(C)c3ccccc23)cc1 (stereo not drawn) [Compound 181142],+ (“+” <20% increase in NMNAT2 luciferase activity.)
5,O=C(Cn1cc(C(=O)C(F)(F)F)c2ccccc21)NCc1ccco1 [Compound 181101],+ (“+” <20% increase in NMNAT2 luciferase activity.)
6,O=C(Cn1ccc2ccccc21)NCc1ccc(F)cc1 [Compound 181148],++ (“++” >20% and <100% increase in NMNAT2 luciferase activity.)
7,Cc1ccc(CNC(=O)Cn2c(-c3cccs3)cc3cc(F)ccc32)o1 [Compound 181119],+ (“+” <20% increase in NMNAT2 luciferase activity.)
8,O=C(Cn1cc(C(=O)c2ccccc2)c2ccccc21)NCc1ccco1 [Compound 181106],+++ (“+++” >100% increase in NMNAT2 luciferase activity.)
9,Cn1c(=O)c(=O)n(CC(=O)NCc2ccco2)c2ccccc21 [Compound 181136],+ (“+” <20% increase in NMNAT2 luciferase activity.)
10,Cc1cc(C)n(CC(=O)NCc2ccccc2)c(=O)c1C#N [Compound 181120],+ (“+” <20% increase in NMNAT2 luciferase activity.)
11,COc1ccc(CNC(=O)Cn2c(C)cc(C)c(C#N)c2=O)cc1 [Compound 181124],+ (“+” <20% increase in NMNAT2 luciferase activity.)
12,Cc1cc(C)n(CC(=O)NCc2ccc(F)cc2)c(=O)c1C#N [Compound 181123],+ (“+” <20% increase in NMNAT2 luciferase activity.)
13,Cc1cc2ccccc2c(=O)n1CC(=O)NCc1ccco1 [Compound 181112],+ (“+” <20% increase in NMNAT2 luciferase activity.)
14,O=C(Cn1cc(C(=O)C2CCCCC2)c2ccccc21)NCc1ccco1 [Compound 181107],+++ (“+++” >100% increase in NMNAT2 luciferase activity.)
15,Cc1ccc(CNC(=O)c2ccc(NC(=O)Cn3c(C)cc(C)c(C#N)c3=O)cc2)o1 [Compound 181134],+ (“+” <20% increase in NMNAT2 luciferase activity.)
16,Cc1cc(C)n(CC(=O)NCc2ccc(Cl)cc2)c(=O)c1C#N [Compound 181122],+ (“+” <20% increase in NMNAT2 luciferase activity.)
17,CCc1cccc2c(C(=O)C(F)(F)F)cn(CC(=O)NCc3ccco3)c12 [Compound 181102],+ (“+” <20% increase in NMNAT2 luciferase activity.)
18,O=C(Cn1c(-c2cccs2)cc2cc(F)ccc21)NCc1ccco1 [Compound 181118],+ (“+” <20% increase in NMNAT2 luciferase activity.)
